How the values were obtained:
CYP2D6 = CYP2D6 (Homo sapiens, UniProt P10635); assay: CYP phenotyping, recombinant CYP enzyme incubation; assay type: in vitro ADME
Protocol: (§1) These incubations were carried out at a concentration of 1 µM and contained 50 pmol/ml of CYP protein. Samples were taken at 0, 5, 10, 15, 20 and 30 minutes. The CLint and t1/2 were calculated from the data.

human CYP3A5 = human CYP3A5 (Homo sapiens, UniProt P20815); assay: CYP phenotyping, recombinant CYP enzyme incubation; assay type: in vitro ADME
Protocol: as §1

CYP1A2 = biological target: T1, CYP1A2 (Homo sapiens, UniProt P05177); assay: CYP phenotyping, recombinant CYP enzyme incubation; assay type: in vitro ADME
T1 sequence (P05177 1-516): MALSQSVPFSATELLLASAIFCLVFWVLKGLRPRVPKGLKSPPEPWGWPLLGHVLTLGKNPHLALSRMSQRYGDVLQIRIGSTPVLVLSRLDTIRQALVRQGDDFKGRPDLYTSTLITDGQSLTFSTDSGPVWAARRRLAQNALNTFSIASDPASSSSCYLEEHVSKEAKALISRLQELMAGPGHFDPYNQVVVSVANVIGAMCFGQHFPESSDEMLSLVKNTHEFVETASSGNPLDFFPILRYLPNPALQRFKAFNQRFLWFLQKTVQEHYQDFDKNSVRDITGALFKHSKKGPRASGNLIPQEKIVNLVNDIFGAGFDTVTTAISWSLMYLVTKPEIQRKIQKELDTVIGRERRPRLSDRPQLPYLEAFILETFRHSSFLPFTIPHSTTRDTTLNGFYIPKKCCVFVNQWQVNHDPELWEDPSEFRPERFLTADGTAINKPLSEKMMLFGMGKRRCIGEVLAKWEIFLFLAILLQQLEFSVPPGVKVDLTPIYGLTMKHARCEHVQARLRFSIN
Protocol: as §1

CYP2C9 = CYP2C9 (Homo sapiens, UniProt P11712); assay: CYP phenotyping, recombinant CYP enzyme incubation; assay type: in vitro ADME
Protocol: as §1

human CYP2E1 = human CYP2E1 (Homo sapiens, UniProt P05181); assay: CYP phenotyping, recombinant CYP enzyme incubation; assay type: in vitro ADME
Protocol: as §1

CYP3A4 = CYP3A4 (Homo sapiens, UniProt P08684); assay: CYP phenotyping, recombinant CYP enzyme incubation; assay type: in vitro ADME
Protocol: as §1

CYP2C8 = biological target: T2, CYP2C8 (Homo sapiens, UniProt P10632); assay: CYP phenotyping, recombinant CYP enzyme incubation; assay type: in vitro ADME
T2 sequence (P10632 1-490): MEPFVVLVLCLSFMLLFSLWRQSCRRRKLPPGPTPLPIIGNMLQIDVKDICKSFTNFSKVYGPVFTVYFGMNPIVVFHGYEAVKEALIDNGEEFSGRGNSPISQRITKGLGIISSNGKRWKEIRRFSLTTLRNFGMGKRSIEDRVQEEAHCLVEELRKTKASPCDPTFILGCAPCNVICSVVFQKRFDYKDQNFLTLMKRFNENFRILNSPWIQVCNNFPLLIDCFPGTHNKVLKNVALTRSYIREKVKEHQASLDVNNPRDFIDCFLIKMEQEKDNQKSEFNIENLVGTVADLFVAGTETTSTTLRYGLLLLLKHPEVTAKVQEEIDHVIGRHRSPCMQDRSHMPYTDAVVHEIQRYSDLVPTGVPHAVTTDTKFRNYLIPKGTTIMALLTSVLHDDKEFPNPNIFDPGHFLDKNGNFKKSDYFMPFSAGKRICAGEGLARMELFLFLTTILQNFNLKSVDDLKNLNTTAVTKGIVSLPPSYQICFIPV
Protocol: as §1

CYP2C19 = CYP2C19 (Homo sapiens, UniProt P33261); assay: CYP phenotyping, recombinant CYP enzyme incubation; assay type: in vitro ADME
Protocol: as §1

human CYP2A6 = biological target: T3, human CYP2A6 (Homo sapiens, UniProt P11509); assay: CYP phenotyping, recombinant CYP enzyme incubation; assay type: in vitro ADME
T3 sequence (P11509 1-494): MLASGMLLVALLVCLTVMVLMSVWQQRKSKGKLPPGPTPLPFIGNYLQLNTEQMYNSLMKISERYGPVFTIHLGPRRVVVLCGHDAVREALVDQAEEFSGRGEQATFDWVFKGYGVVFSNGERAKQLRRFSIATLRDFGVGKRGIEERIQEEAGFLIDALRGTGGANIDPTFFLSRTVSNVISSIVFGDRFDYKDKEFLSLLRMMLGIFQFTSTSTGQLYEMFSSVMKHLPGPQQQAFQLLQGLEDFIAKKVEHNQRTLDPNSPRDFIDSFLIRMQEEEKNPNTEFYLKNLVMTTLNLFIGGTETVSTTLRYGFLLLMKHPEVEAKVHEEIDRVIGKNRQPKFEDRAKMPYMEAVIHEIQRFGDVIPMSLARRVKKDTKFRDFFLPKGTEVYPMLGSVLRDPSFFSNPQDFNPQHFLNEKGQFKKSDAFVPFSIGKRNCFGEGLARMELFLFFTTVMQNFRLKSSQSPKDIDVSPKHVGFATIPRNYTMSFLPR
Protocol: as §1

pKa of free form (UV) = assay type: physicochemical

Sequence of CYP3A4 (P08684 whole entry): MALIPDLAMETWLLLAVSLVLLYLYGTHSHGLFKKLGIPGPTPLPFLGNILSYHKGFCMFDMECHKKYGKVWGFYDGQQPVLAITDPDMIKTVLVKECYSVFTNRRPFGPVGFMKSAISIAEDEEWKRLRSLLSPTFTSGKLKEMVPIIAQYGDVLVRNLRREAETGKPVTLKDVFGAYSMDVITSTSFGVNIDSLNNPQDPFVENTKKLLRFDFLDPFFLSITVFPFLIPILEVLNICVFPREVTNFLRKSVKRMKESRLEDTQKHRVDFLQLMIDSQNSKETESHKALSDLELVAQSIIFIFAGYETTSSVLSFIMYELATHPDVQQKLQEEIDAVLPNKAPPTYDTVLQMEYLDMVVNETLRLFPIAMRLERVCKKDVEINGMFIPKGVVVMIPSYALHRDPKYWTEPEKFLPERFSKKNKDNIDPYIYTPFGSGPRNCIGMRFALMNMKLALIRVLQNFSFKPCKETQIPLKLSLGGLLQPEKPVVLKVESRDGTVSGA
Sequence of CYP2C9 (P11712 whole entry): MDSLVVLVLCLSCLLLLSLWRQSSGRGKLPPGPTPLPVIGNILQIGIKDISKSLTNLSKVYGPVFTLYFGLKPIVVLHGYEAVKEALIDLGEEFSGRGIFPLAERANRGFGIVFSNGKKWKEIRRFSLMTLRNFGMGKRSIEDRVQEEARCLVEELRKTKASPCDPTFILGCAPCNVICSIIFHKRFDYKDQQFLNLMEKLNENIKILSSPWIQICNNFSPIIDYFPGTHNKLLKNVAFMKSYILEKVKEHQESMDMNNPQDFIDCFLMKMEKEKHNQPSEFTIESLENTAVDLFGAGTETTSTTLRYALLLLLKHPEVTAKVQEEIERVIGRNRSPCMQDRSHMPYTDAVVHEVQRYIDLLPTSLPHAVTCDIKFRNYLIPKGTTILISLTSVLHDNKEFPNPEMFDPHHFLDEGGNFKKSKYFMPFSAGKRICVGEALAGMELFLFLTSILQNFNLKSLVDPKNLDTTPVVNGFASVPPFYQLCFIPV
Sequence of CYP2C19 (P33261 whole entry): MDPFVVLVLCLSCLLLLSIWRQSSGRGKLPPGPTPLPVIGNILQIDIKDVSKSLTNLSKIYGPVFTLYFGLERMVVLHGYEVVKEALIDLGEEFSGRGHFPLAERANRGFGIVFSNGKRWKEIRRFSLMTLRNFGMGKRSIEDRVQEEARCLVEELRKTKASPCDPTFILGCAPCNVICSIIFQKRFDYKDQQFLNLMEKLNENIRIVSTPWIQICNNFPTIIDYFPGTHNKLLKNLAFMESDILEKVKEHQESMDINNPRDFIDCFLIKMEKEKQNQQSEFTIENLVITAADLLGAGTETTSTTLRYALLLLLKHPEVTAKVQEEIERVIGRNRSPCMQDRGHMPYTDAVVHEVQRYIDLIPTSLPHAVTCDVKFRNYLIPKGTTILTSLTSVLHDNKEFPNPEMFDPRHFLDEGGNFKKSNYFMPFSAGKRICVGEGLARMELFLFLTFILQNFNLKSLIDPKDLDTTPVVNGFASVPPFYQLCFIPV
Sequence of CYP2D6 (P10635 whole entry): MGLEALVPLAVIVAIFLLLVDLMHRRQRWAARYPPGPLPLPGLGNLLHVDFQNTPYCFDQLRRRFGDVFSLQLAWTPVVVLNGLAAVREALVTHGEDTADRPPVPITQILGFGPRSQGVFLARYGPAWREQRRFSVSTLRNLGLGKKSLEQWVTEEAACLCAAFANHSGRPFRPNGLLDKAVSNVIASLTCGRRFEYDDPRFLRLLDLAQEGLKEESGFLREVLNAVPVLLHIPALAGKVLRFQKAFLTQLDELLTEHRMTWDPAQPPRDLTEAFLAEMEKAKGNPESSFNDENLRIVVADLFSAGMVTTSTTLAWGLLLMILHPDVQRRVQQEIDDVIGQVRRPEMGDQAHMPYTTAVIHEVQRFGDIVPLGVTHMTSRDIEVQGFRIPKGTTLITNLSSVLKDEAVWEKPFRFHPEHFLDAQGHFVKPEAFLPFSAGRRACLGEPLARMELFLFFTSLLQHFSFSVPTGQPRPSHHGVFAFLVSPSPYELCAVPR
Sequence of human CYP2E1 (P05181 whole entry): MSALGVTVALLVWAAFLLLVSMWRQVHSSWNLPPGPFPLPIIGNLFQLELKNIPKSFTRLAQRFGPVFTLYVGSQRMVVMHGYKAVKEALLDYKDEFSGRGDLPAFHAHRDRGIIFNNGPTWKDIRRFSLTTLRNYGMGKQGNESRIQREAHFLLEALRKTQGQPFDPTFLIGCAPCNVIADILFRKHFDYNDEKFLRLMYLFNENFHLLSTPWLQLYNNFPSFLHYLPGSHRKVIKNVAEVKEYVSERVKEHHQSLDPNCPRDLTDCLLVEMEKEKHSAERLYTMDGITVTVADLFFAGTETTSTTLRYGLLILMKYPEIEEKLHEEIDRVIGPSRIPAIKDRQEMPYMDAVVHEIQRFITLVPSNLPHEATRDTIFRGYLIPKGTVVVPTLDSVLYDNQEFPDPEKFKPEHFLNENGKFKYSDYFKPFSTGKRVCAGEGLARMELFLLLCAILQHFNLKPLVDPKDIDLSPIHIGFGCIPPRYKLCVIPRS
Sequence of human CYP3A5 (P20815 whole entry): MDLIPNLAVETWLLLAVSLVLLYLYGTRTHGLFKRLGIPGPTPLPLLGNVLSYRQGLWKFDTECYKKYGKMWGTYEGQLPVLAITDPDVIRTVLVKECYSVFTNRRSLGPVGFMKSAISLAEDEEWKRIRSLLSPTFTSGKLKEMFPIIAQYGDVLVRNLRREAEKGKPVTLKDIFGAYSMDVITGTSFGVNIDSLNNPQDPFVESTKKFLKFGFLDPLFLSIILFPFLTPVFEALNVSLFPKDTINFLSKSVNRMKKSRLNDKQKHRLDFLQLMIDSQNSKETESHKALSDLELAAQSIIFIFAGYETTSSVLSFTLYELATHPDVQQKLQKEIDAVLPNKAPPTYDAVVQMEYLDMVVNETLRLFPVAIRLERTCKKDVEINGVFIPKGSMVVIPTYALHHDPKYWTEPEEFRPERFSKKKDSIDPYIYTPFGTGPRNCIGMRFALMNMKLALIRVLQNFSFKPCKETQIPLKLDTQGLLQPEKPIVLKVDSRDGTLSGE

Q: With `CN1CCC[C@H](CN2c3ccccc3Sc3ccccc32)C1` [(S)-mepazine, (S)-10-((1-methylpiperidin-3-yl)methyl)-10H-phenothiazine] as the molecule, how does the Contribution % (CYP2D6; CYP2D6) read?
A: The Contribution % was 11.0%.

Q: What about the contribution % (CYP2D6; CYP2D6) of the same molecule?
A: The contribution % was 11.0%.

Q: What about the “CYP isoform participating in metabolism” value (CYP2D6; based on expressed human cytochrome P450s and liver microsomes with specific inhibitors) of the same molecule?
A: The value was “CYP2D6 is major CYP isoform”.

Q: And the half-life at 1 µM (CYP2D6; human, recombinant CYP2D6, 1 µM, 50 pmol/ml of CYP protein, mean ± SD, n = 3)?
A: Its half-life at 1 µM is 9.94 ± 0.819 min.

Q: And the CLint (CYP2D6; recombinant CYP2D6, 1 µM, 50 pmol/ml of CYP protein, mean ± SD, n = 3)?
A: The CLint was 1.40 ± 0.112 μL/min/pmol CYP.

Q: What about the CLint (CYP2D6; recombinant CYP2D6, 1 µM, 50 pmol/ml CYP protein) of the same molecule?
A: The CLint was 1.40 µL/min/pmol.

Q: What about the Contribution % (human CYP3A5) of the same molecule?
A: The Contribution % was 0.0651%.

Q: And the contribution % (human CYP3A5)?
A: Its contribution % is 0.0651%.

Q: And the Contribution % (CYP1A2; CYP1A2)?
A: The Contribution % was 9.61%.

Q: And the contribution % (CYP1A2; CYP1A2)?
A: Its contribution % is 9.61%.

Q: What about the half-life at 1 µM (CYP1A2; human, recombinant CYP1A2, 1 µM, 50 pmol/ml of CYP protein, mean ± SD, n = 3) of the same molecule?
A: Its half-life at 1 µM is 51.5 ± 5.99 min.

Q: What about the CLint (CYP1A2; recombinant CYP1A2, 1 µM, 50 pmol/ml of CYP protein, mean ± SD, n = 3) of the same molecule?
A: Its CLint is 0.272 ± 0.0339 μL/min/pmol CYP.

Q: What about the CLint (CYP1A2; recombinant CYP1A2, 1 µM, 50 pmol/ml CYP protein) of the same molecule?
A: The CLint was 0.272 µL/min/pmol.

Q: What about the Contribution % (CYP2C9; CYP2C9) of the same molecule?
A: The Contribution % was 8.24%.

Q: What about the contribution % (CYP2C9; CYP2C9) of the same molecule?
A: Its contribution % is 8.24%.

Q: And the half-life at 1 µM (CYP2C9; human, recombinant CYP2C9, 1 µM, turnover observed for one or two replicates only, t1/2 reported as minimum)?
A: The half-life at 1 µM was 127 min.

Q: What about the CLint (CYP2C9; recombinant CYP2C9, 1 µM, turnover observed for one or two replicates only, Clint reported as maximum) of the same molecule?
A: The CLint was 0.109 μL/min/pmol CYP.

Q: What about the CLint (CYP2C9; recombinant CYP2C9, turnover observed in one of the three replicates) of the same molecule?
A: The CLint was 0.109 µL/min/pmol.

Q: What about the Contribution % (human CYP2E1; CYP2E1) of the same molecule?
A: Its Contribution % is 0.00%.

Q: What about the “metabolism by recombinant CYP isoform” value (human CYP2E1; recombinant CYP2E1) of the same molecule?
A: Its value is “not found to substantially metabolize”.

Q: What about the CLint (human CYP2E1; recombinant CYP2E1, 1 µM, turnover not significant and > 80% remaining at last time point reported as 0.00) of the same molecule?
A: Its CLint is 0.00 μL/min/pmol CYP.

Q: What about the t1/2 (human CYP2E1; recombinant CYP2E1, 1 µM, turnover not significant and > 80% remaining at last time point reported as ∞) of the same molecule?
A: Its t1/2 is “∞”.

Q: And the Contribution % (CYP3A4; CYP3A4)?
A: The Contribution % was 50.3%.

Q: What about the contribution % (CYP3A4; CYP3A4) of the same molecule?
A: Its contribution % is 50.3%.

Q: And the half-life at 1 µM (CYP3A4; human, recombinant CYP3A4, 1 µM, 50 pmol/ml of CYP protein, mean ± SD, n = 3)?
A: The half-life at 1 µM was 23.5 ± 2.35 min.

Q: What about the CLint (CYP3A4; recombinant CYP3A4, 1 µM, 50 pmol/ml of CYP protein, mean ± SD, n = 3) of the same molecule?
A: The CLint was 0.593 ± 0.0562 μL/min/pmol CYP.

Q: And the CLint (CYP3A4; recombinant CYP3A4, 1 µM, 50 pmol/ml CYP protein)?
A: Its CLint is 0.593 µL/min/pmol.

Q: What about the Contribution % (CYP2C8; CYP2C8) of the same molecule?
A: Its Contribution % is 12.8%.

Q: What about the contribution % (CYP2C8; CYP2C8) of the same molecule?
A: Its contribution % is 12.8%.

Q: What about the half-life at 1 µM (CYP2C8; human, recombinant CYP2C8, 1 µM, 50 pmol/ml of CYP protein, mean ± SD, n = 3) of the same molecule?
A: Its half-life at 1 µM is 57.2 ± 14.4 min.

Q: What about the CLint (CYP2C8; recombinant CYP2C8, 1 µM, 50 pmol/ml of CYP protein, mean ± SD, n = 3) of the same molecule?
A: Its CLint is 0.254 ± 0.0720 μL/min/pmol CYP.

Q: What about the CLint (CYP2C8; recombinant CYP2C8, 1 µM, 50 pmol/ml CYP protein) of the same molecule?
A: The CLint was 0.254 µL/min/pmol.

Q: And the Contribution % (CYP2C19; CYP2C19)?
A: The Contribution % was 8.01%.

Q: And the contribution % (CYP2C19; CYP2C19)?
A: The contribution % was 8.01%.

Q: And the half-life at 1 µM (CYP2C19; human, recombinant CYP2C19, 1 µM, 50 pmol/ml of CYP protein, mean ± SD, n = 3)?
A: Its half-life at 1 µM is 25.9 ± 1.68 min.

Q: What about the CLint (CYP2C19; recombinant CYP2C19, 1 µM, 50 pmol/ml of CYP protein, mean ± SD, n = 3) of the same molecule?
A: The CLint was 0.537 ± 0.0361 μL/min/pmol CYP.

Q: What about the CLint (CYP2C19; recombinant CYP2C19, 1 µM, 50 pmol/ml CYP protein) of the same molecule?
A: Its CLint is 0.537 µL/min/pmol.

Q: What about the Contribution % (human CYP2A6; CYP2A6) of the same molecule?
A: The Contribution % was 0.00%.

Q: And the “metabolism by recombinant CYP isoform” value (human CYP2A6; recombinant CYP2A6)?
A: Its value is “not found to substantially metabolize”.

Q: What about the CLint (human CYP2A6; recombinant CYP2A6, 1 µM, turnover not significant and > 80% remaining at last time point reported as 0.00) of the same molecule?
A: Its CLint is 0.00 μL/min/pmol CYP.

Q: What about the t1/2 (human CYP2A6; recombinant CYP2A6, 1 µM, turnover not significant and > 80% remaining at last time point reported as ∞) of the same molecule?
A: The t1/2 was “∞”.

Q: And the pKa (pKa of free form (UV))?
A: Its pKa is 9.24.
